# Assay results: patent US9006442B2, “Cannabinoid receptor modulators” (Lupin Limited, priority 2011, dated 2015)
# Read-outs that look alike come from different tables or passages of the source.
# Key:
# [1] = target: hCB2 (Homo sapiens, UniProt P34972); assay: cAMP determination in functional hCB2-CHO stable cells (HTRF); type: cell-based
# Protocol: In-Vitro Assay Method for Determination of cAMP in Functional hCB2—CHO Stable Cells:
# Recombinant CHO-hCB2 cells (procured from Perkin Elmer Inc. USA) were propagated and maintained in Ham's F-12 complete medium containing 10% heat inactivated FBS (Sigma.UK) and 1× penstrep. For assay, 0.1×10^6 to 1.0×10^6 CHO-hCB2 cells were seeded in T-25 flask and grown to mid-log phase in culture media without antibiotics for 2-3 days. […] The test is performed in 96^1/2 area black well plates. For agonist testing, 20 μl cells/well were mixed with 20 μl of sample and 10 μl of forskolin (with final concentration of 10 μM) and incubated for 20 to 40 min at room temperature in incubator. The plate was then processed for the cAMP determination using cAMP Femto-2 HTRF kit (Cisbio, Germany) as per the manual.
# The concentration of compound required to stimulate a half-maximal response (EC50) was determined using the GraphPad Prism software (version 5).
# [2] = target: T1, human CB1 (Homo sapiens, UniProt P21554); assay: cAMP determination in functional hCB1-HEK stable cells (HTRF); type: cell-based
# T1 construct: expressed in transfected cells
# Protocol: In-Vitro Assay Method for Determination of cAMP in Functional hCB1—HEK Stable Cells:
# U.S.A), 400 μg/ml of G418 and lx penstrep. For assay, 0.6-1.0×10^6 hCB1-HEK cells were seeded in T-25 flask and grown to mid-log phase in complete culture medium as mentioned above for 2-3 days. One day prior to assay, cell monolayer was washed once with PBS (pH.7.4) and then serum starved for overnight in DMEM medium containing 0.2% bovine serum albumin (devoid of antibiotics, FBS and penstrep). […] The test is performed in 96^1/2 area black well plates. For agonist testing, 20 μl cells/well were mixed with 20 μl of compound and 10 μl of forskolin (with final concentration of 10 μM) and incubated for 40 min at 25° C. incubator. The plates were then processed for cAMP determination using cAMP Femto-2 HTRF kit (Cisbio, Germany) as per the kit manual.
# [3] = tested on: rats; assay: Chronic constriction injury (CCI)-induced neuropathic pain (Bennett's model), mechanical allodynia, von Frey filaments; type: in vivo; settings: CCI of sciatic nerve, mechanical allodynia after 10-15 days, dose 10 mg/kg
# Protocol: Chronic Constriction Injury (CCI)—Induced Neuropathic Pain (Bennett's Model):
# Chronic constriction injury (CCI) of sciatic nerve in rats induces mechanical allodynia in this Bennet's neuropathic pain model. Rats were anesthetized using ketamine/xylazine (50/5 mg/kg, i.p.) and the left sciatic nerve was exposed at mid thigh level through a small incision. Four loose ligatures of 4-0 chromic cat gut (Ethicon—Johnson & Johnson) at 1 mm space were placed around the sciatic nerve after the bifurcation of common sciatic nerve. After 10-15 days, mechanical allodynia was assessed by measuring hind paw withdrawal thresholds with von Frey filaments. The 50% paw withdrawal threshold was determined using up and down method of Dixon and as per the Chaplan method.
# [4] = tested on: rats; assay: FCA-induced inflammatory allodynia, paw withdrawal threshold, von Frey filaments; type: in vivo; settings: mechanical allodynia 7 days after FCA injection, dose 10 mg/kg
# Protocol: FCA (Freund's Complete Adjuvant)—Induced Inflammatory Allodynia:
# An emulsion of Freund's Complete Adjuvant (FCA), containing heat killed Mycobacterium tuberculosis (4 mg/ml) in incomplete Freund's adjuvant and saline (1:1) at a final concentration of 2 mg/ml, when injected (150 μl) into the plantar region of the paw of rats induces an inflammatory pain. Mechanical allodynia (7 days after injection) was assessed by measuring hind paw withdrawal thresholds with von Frey filaments. The 50% paw withdrawal threshold was determined using up and down method of Dixon and as per the Chaplan method.
# [5] = tested on: rats; assay: FCA (Freund's Complete Adjuvant)-induced inflammatory hyperalgesia, paw withdrawal threshold, Dynamic plantar aesthesiometer; type: in vivo; settings: mechanical hyperalgesia 3 days post-FCA
# Protocol: FCA (Freund's Complete Adjuvant)—Induced Inflammatory Hyperalgesia:
# Freund's Complete Adjuvant (FCA), containing heat killed Mycobacterium tuberculosis (2 mg/ml) in incomplete Freund's adjuvant, injected (50 μl) into the plantar region of the paw of rats induces an inflammatory pain. Mechanical hyperalgesia (3 days post-FCA) was assessed by measuring hind paw withdrawal thresholds with Dynamic planter aesthesiometer.
# [6] = CHO-hCB2 cells, cAMP, forskolin 10 μM, agonist testing, read-out: EC50 Range
# T1 sequence (P21554 whole entry): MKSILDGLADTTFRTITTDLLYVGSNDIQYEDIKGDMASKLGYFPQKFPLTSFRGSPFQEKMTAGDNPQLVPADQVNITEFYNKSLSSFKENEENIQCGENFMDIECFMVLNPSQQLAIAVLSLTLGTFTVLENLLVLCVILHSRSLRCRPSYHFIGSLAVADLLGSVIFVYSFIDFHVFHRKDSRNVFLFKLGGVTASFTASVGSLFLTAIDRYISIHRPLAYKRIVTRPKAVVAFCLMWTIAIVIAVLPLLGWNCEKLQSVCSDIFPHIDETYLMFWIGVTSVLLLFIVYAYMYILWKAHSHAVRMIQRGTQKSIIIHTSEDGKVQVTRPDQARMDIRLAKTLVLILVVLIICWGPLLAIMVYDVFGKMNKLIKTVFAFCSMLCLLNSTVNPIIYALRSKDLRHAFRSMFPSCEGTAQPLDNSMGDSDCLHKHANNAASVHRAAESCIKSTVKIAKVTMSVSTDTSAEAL
# Chain of hCB2 (P34972 whole entry): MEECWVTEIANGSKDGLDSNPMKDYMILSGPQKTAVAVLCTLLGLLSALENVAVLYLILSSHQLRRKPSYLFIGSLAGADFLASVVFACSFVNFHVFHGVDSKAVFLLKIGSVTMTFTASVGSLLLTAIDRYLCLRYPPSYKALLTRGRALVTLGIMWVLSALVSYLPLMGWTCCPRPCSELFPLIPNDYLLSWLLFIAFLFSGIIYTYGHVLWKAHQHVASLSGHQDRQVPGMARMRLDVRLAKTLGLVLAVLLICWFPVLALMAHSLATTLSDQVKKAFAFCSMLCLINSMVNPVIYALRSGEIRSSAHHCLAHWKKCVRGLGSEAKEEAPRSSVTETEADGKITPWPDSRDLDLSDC
SMILES,EC50 [1] [nM],EC50 [2] [nM],other results
"Cc1cccc2c(Nc3cccc(Cl)c3)ncc(C(=O)N3CCOCC3)c12 [Example-1, (1-((3-Chlorophenyl)amino)-5-methylisoquinolin-4-yl)(morpholino)methanone]",< 10,> 100,
"Cc1cccc2c(Nc3cccc(C(F)(F)F)c3)ncc(C(=O)N3CC4CC(C3)O4)c12 [Example-40, 6-Oxa-3-azabicyclo[3.1.1]heptan-3-yl(5-methyl-1-((3-(trifluoromethyl)phenyl)amino)isoquinolin-4-yl)methanone]",< 10,,"% Improvement (MEAN ± S.E.M.) in Paw withdrawal Threshold, 1 h ([3]; 1 h): 21.6 ± 10.6%; % Improvement (MEAN ± S.E.M.) in Paw withdrawal Threshold, 2 h ([3]; 2 h): 11.2 ± 2.9%; % Improvement (MEAN ± S.E.M.) in Paw withdrawal Threshold, 1 h ([4]; 1 h): 12.8 ± 4.6%; % Improvement (MEAN ± S.E.M.) in Paw withdrawal Threshold, 2 h ([4]; 2 h): 13.8 ± 4.5%"
"O=C(c1ccc(Nc2cccc(Cl)c2)c2ccccc12)N1CCOCC1 [Example-179, (4-((3-Chlorophenyl)amino)naphthalen-1-yl)(morpholino)methanone]",< 10,> 100,
"Cc1cccc2c(Nc3cc(F)cc(F)c3)ncc(CN3CCOCC3)c12 [Example-225, N-(3,5-difluorophenyI)-5-methyl-4-(morpholinomethyl)isoquinolin-1-amine]",,< 100,
"Cc1cccc2c(Nc3cccc(C(F)(F)F)c3)ncc(C(=O)N3CCOCC3)c12 [Example-4, (5-Methyl-1-((3-(trifluoromethyl)phenyl)amino)isoquinolin-4-yl)(morpholino)methanone]",< 10,,"% Improvement (MEAN ± S.E.M.) in Paw withdrawal Threshold, 1 h ([5]; dose 10 mg/kg): 60.9 ± 12 %; % Improvement (MEAN ± S.E.M.) in Paw withdrawal Threshold, 2 h ([5]; dose 10 mg/kg): 42.9 ± 8.7 %; % Improvement (MEAN ± S.E.M.) in Paw withdrawal Threshold, 4 h ([5]; dose 10 mg/kg): 43.9 ± 17.4 %"
"O=C(c1cnc(Nc2cccc(Cl)c2)c2cccc(Cl)c12)N1CCCCC1 [Example-218, (5-Chloro-1-((3-chlorophenyl)amino)isoquinolin-4-yl)(piperidin-1-yl)methanone]",,< 100,
"Cc1cccc2c(Oc3ccc(F)cc3Cl)ncc(C(=O)N3CCOCC3)c12 [Example-56, (1-(2-Chloro-4-fluorophenoxy)-5-methylisoquinolin-4-yl)(morpholino)methanone]",,> 100,
"Cc1cccc2c(Nc3cccc(Cl)c3)ncc(C(=O)N3CCC(F)(F)CC3)c12 [Example-241, (1-((3-Chlorophenyl)amino)-5-methylisoquinolin-4-yl)(4,4-difluoropiperidin-1-yl)methanone]",,< 100,
"O=C(c1ccc(Nc2cccc(F)c2)c2ccccc12)N1CCOCC1 [Example-183, (4-((3-Fluorophenyl)amino)naphthalen-1-yl)(morpholino)methanone]",10 to 1000,> 100,
Cc1cccc2c(Nc3cccc(C(F)(F)F)c3)ccc(C(=O)N3CCOCC3)c12 [Example-134],< 10,,"% Improvement (MEAN ± S.E.M.) in Paw withdrawal Threshold, 1 h ([5]; dose 10 mg/kg): 6.8 ± 8.8%; % Improvement (MEAN ± S.E.M.) in Paw withdrawal Threshold, 2 h ([5]; dose 10 mg/kg): 25.8 ± 5.2%; % Improvement (MEAN ± S.E.M.) in Paw withdrawal Threshold, 4 h ([5]; dose 10 mg/kg): −1.6 ± 8.0%"
"Cc1cccc2c(Nc3cccc(C(F)(F)F)c3F)ncc(C(=O)N(C)C)c12 [Example-257, 1-((2-Fluoro-3-(trifluoromethyl)phenyl)amino)-N,N,5-trimethyl isoquinolin-4-carboxamide]",,,"EC50 [1, 6]: < 10 nM; % Improvement (MEAN ± S.E.M.) in Paw withdrawal Threshold, 1 h ([5]; dose 30 mg/kg): 44.4 ± 23.3%; % Improvement (MEAN ± S.E.M.) in Paw withdrawal Threshold, 2 h ([5]; dose 30 mg/kg): 52.8 ± 19.1%"
"Cc1c(Cl)cccc1Nc1ccc(C(=O)N2CCOCC2)c2c(C)cccc12 [Example-155, (4-((3-Chloro-2-methylphenyl)amino)-8-methylnaphthalen-1-yl)(morpholino)methanone]",< 10,< 100,
Cc1cccc2c(Nc3cccc(C(F)(F)F)c3)ccc(C(=O)N3CCCCC3)c12 [Example-143],< 10,,"% Improvement (MEAN ± S.E.M.) in Paw withdrawal Threshold, 1 h ([5]; dose 10 mg/kg): 16.7 ± 15.0%; % Improvement (MEAN ± S.E.M.) in Paw withdrawal Threshold, 2 h ([5]; dose 10 mg/kg): 25.1 ± 17.8%; % Improvement (MEAN ± S.E.M.) in Paw withdrawal Threshold, 4 h ([5]; dose 10 mg/kg): 18.3 ± 18.5%"
"CCc1cccc2c(Nc3cccc(Cl)c3F)ncc(C(=O)N3CCCCC3)c12 [Example-128, (1-((3-Chloro-2-fluorophenyl)amino)-5-ethylisoquinolin-4-yl)(piperidin-1-yl)methanone]",< 10,,
"O=C(c1cnc(Nc2cccc(C(F)(F)F)c2)c2cccc(C3CC3)c12)N1CCOCC1 [Example-118, (5-Cyclopropyl-1-((3-(trifluoromethyl)phenyl)amino)isoquinolin-4-yl)(morpholino)methanone]",< 10,,
"Cc1cccc2c(Nc3cccc(C(F)F)c3)ncc(C(=O)N3CCOCC3)c12 [Example-13, (1-(((3-Difluoromethyl)phenyl)amino)-5-methylisoquinolin-4-yl)(morpholino)methanone]",< 10,< 100,
"Cc1cccc2c(Nc3cccc(Cl)c3)ncc(C(=O)N3CCCC3)c12 [Example-102, (1-((3-Chlorophenyl)amino)-5-methylisoquinolin-4-yl)(pyrrolidin-1-yl)methanone]",10 to 1000,,
"Cc1cccc2c(Nc3cccc(F)c3)ncc(C(=O)N3CCCCC3)c12 [Example-21, (1-((3-Fluorophenyl)amino)-5-methylisoquinolin-4-yl)(piperidino)methanone]",< 10,,
"O=C(NCC1CCOCC1)c1ccc(Nc2cccc(Cl)c2)c2ccccc12 [Example-180, 4-((3-Chlorophenyl)amino)-N-((tetrahydro-2H-pyran-4-yl)methyl)-1-naphthamide]",10 to 1000,,
"COC(=O)c1cccc(Nc2ccc(C(=O)N3CCOCC3)c3c(C)cccc23)c1 [compound 408, Methyl 3-((5-methyl-4-(morpholin-4-carbonyl)naphthalen-1-yl)amino) benzoate]",,,"EC50 [1, 6]: < 10 nM"
"CCN(C)C(=O)c1cnc(Nc2cccc(C(F)(F)F)c2F)c2cccc(C)c12 [compound 292, N-Ethyl-1-((2-fluoro-3-(trifluoromethyl)phenyl)amino)-N,5-dimethyl isoquinolin-4-carboxamide]",,,"EC50 [1, 6]: < 10 nM"
"CCN(CC)C(=O)c1cnc(Nc2cccc(C(F)(F)F)c2F)c2cccc(Cl)c12 [compound 328, 5-Chloro-N,N-diethyl-1-((2-fluoro-3-(trifluoromethyl)phenyl)amino) isoquinolin-4-carboxamide]",,,"EC50 [1, 6]: < 10 nM"
"CCN(C)C(=O)c1ccc(Nc2cccc(C(F)(F)F)c2C)c2cccc(C)c12 [compound 452, N-Ethyl-N,8-dimethyl-4-((2-methyl-3-(trifluoromethyl)phenyl)amino)-1-naphthamide]",,,"EC50 [1, 6]: < 10 nM"
"CCc1cccc2c(Nc3cccc(Cl)c3C)ncc(C(=O)N3CCCCC3)c12 [Example-131, (1-((3-Chloro-2-methylphenyl)amino)-5-ethylisoquinolin-4-yl)(piperidin-1-yl)methanone]",,,"EC50 [1, 6]: < 10 nM"
"O=C(c1cnc(Nc2cccc(Cl)c2)c2cccc(C3CC3)c12)N1CCOCC1 [Example-114, (1-((3-Chlorophenyl)amino)-5-cyclopropylisoquinolin-4-yl)(morpholino)methanone]",< 10,,
